This note sets out measurements from PubChem BioAssay (NCI).

“And” between values parts separate entries of the source, which are not always exact repeats. Identical values can stand only once.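 Step 1: Grow cells in 96-well plates. Step 2: Expose to compound for 48 hours at 5 concentrations. Step 3: Interpolate endpoints linearly; if unreached, use highest concentration. GI50: concentration for 50% inhibition of growth. TGI is the concentration that stops growth completely.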 Where a SMILES comes first, the peptide text is derived from it. [ ]: non-standard residue; d: D form. Ac5c = NC1(C(=O)O)CCCC1 A value given as a limit tells only on which side of the number the result lay.

Some test systems named below: A498 renal; EKVX NSCLC; HL-60(TB) leukemia; MDA-MB-435; NCI-H460 lung; RXF 393 renal; SK-OV-3 ovarian; SR leukemia; UACC-62 melanoma; UO-31 renal.
Assay in all cases: growth of human tumour cells (NCI), 48 h

As for `CO[C@@H]1/C=C\C=C(/C)C(=O)NC2=CC(=O)C(NCCN(C)C)=C(C[C@@H](C)C[C@@H](OC)[C@@H](O)[C@H](C)/C=C(\C)[C@H]1OC(N)=O)C2=O`, the TGI with A498 renal was 28.3 µM; in the assay on EKVX NSCLC, 11.1 µM and 7.59 µM; in the assay on HL-60(TB) leukemia, 1.4 µM and 0.734 µM; with MDA-MB-435, 3.1 µM and 1.32 µM; in the assay with NCI-H460 lung it was 3.61 µM and 3.76 µM; in the assay on RXF 393 renal it was 11.8 µM and 10.8 µM. The TGI with SK-OV-3 ovarian is > 37.4 µM and 6.86 µM; in the assay with SR leukemia it was 10.6 µM; with UACC-62 melanoma, 1.25 µM and 3.87 µM; in the assay on UO-31 renal it was 14 µM and 26.7 µM. Also, the GI50 was 0.641 µM and 0.145 µM with EKVX NSCLC; < 0.0106 µM and 0.0715 µM with HL-60(TB) leukemia; below 0.0124 µM with MDA-MB-435; below 0.0117 µM with NCI-H460 lung.
For the molecule `CC12OC(c3ccccc3)=CC(c3ccc(Cl)cc3)=C1C(c1ccccc1)=CC2=O` (centres undefined), the GI50 with A498 renal is above 100 µM; in the assay on EKVX NSCLC, above 100 µM; with HL-60(TB) leukemia, 23.2 µM; with MDA-MB-435 it was 81.3 µM; with NCI-H460 lung, 34.8 µM; in the assay on RXF 393 renal, 19.1 µM. Further, the GI50 in the assay on SK-OV-3 ovarian was above 100 µM; with SR leukemia, 19.1 µM; in the assay on UACC-62 melanoma, 49.4 µM; in the assay on UO-31 renal it was above 100 µM. Besides, the TGI in the assay with A498 renal was above 100 µM; in the assay on EKVX NSCLC it was above 100 µM; in the assay on HL-60(TB) leukemia it was 77.7 µM; in the assay with MDA-MB-435 it was above 100 µM; in the assay on NCI-H460 lung it was above 100 µM; in the assay with RXF 393 renal it was above 100 µM. Further, the TGI is above 100 µM with SK-OV-3 ovarian, 67 µM in the assay on SR leukemia, above 100 µM in the assay with UACC-62 melanoma and above 100 µM in the assay on UO-31 renal.
Regarding `C=C1C(=O)O[C@H]2[C@H]1CC/C(CNC(=O)c1cc3cc(OC)ccc3[nH]1)=C\CC[C@@]1(C)O[C@@H]21`, the GI50 in the assay on A498 renal is 1.93 µM; in the assay with EKVX NSCLC it was 1.28 µM; with HL-60(TB) leukemia it was 1.97 µM; in the assay with MDA-MB-435, 1.73 µM; in the assay with NCI-H460 lung, 5.51 µM; in the assay with RXF 393 renal, 1.17 µM. The GI50 in the assay with SK-OV-3 ovarian was 11.2 µM; with SR leukemia, 2.24 µM; in the assay on UACC-62 melanoma, 1.52 µM; in the assay with UO-31 renal, 1.27 µM. The TGI in the assay on A498 renal was determined as 8.64 µM; in the assay with EKVX NSCLC, 3 µM; in the assay on HL-60(TB) leukemia, 6.37 µM; in the assay on MDA-MB-435, 5.03 µM; in the assay on NCI-H460 lung, 20 µM; with RXF 393 renal, 2.61 µM. The TGI with SK-OV-3 ovarian stood at 23.5 µM; in the assay on SR leukemia it was 10.1 µM; in the assay with UACC-62 melanoma it was 3.61 µM; with UO-31 renal, 2.64 µM.
Consider `CC1(C)C2CCC3=C(CCC4(C)C5C[C@](C)(C(=O)O)CC[C@]5(C)CC[C@]34C)[C@@]2(C)CC[C@@H]1O` (some centres undefined), for which the TGI with A498 renal turned out to be 44.7 µM; in the assay with EKVX NSCLC, 53 µM; in the assay with HL-60(TB) leukemia, 50.4 µM; with MDA-MB-435, 63 µM; in the assay on NCI-H460 lung it was 30 µM; with RXF 393 renal it was 41.3 µM. Besides, the TGI is 35.7 µM in the assay on SK-OV-3 ovarian, above 100 µM in the assay with SR leukemia, 37.6 µM with UACC-62 melanoma and above 100 µM in the assay with UO-31 renal.
Consider `CC(=O)C(=[N+]=[N-])C(=O)NCC#N`, for which the TGI in the assay with A498 renal, with EKVX NSCLC, in the assay on HL-60(TB) leukemia, in the assay with MDA-MB-435, in the assay on NCI-H460 lung and in the assay with RXF 393 renal was above 10 µM in each case. Moreover, the TGI with SK-OV-3 ovarian, in the assay on SR leukemia, with UACC-62 melanoma and in the assay on UO-31 renal was above 10 µM each time.
Take `OC1(CCc2ccccc2)COC(C(F)(F)F)(C(F)(F)F)C1` (centres undefined): the TGI in the assay on A498 renal, in the assay on EKVX NSCLC, in the assay on HL-60(TB) leukemia, in the assay with MDA-MB-435, in the assay on NCI-H460 lung and with RXF 393 renal was above 100 µM each time. The TGI in the assay on SK-OV-3 ovarian, in the assay on SR leukemia, in the assay with UACC-62 melanoma and with UO-31 renal was above 100 µM in each case.
Regarding `CC(=O)c1c(C)[nH]c(-c2nc3ccc(N4CCN(C)CC4)cc3[nH]2)c1-c1ccc(OCC2CCOCC2)cc1`, the GI50 with A498 renal was 0.345 µM; with EKVX NSCLC, 8.36 µM; in the assay with HL-60(TB) leukemia, 0.129 µM; in the assay with MDA-MB-435, 0.477 µM; with NCI-H460 lung it was 2.39 µM; in the assay with RXF 393 renal, 0.696 µM. Further, the GI50 in the assay on SK-OV-3 ovarian was 0.377 µM; in the assay on SR leukemia, 0.685 µM; in the assay with UACC-62 melanoma, 0.172 µM; with UO-31 renal, 0.207 µM. Also, the TGI turned out to be 2.2 µM in the assay with A498 renal; 37.2 µM in the assay on EKVX NSCLC; 0.785 µM in the assay on HL-60(TB) leukemia; 12.2 µM in the assay on MDA-MB-435; 19.4 µM in the assay with NCI-H460 lung; 2.83 µM in the assay on RXF 393 renal. The TGI in the assay with SK-OV-3 ovarian was determined as 11.1 µM; in the assay with SR leukemia, 5.73 µM; with UACC-62 melanoma, 11.2 µM; with UO-31 renal it was 6.81 µM.
As for `O=C(O[C@H]1CN[C@H](C#Cc2cc3ncnc(Nc4ccc5c(ccn5Cc5cc(F)ccc5F)c4)c3s2)C1)N1CCOCC1`, the GI50 was 0.765 µM with A498 renal; 0.119 µM in the assay on EKVX NSCLC; 3.5 µM in the assay with HL-60(TB) leukemia; 5.13 µM with MDA-MB-435; 5.17 µM in the assay with NCI-H460 lung; 0.413 µM with RXF 393 renal. For the same molecule, the GI50 is 0.0183 µM in the assay on SK-OV-3 ovarian, 6.28 µM in the assay on SR leukemia, 4.1 µM with UACC-62 melanoma and 0.339 µM in the assay with UO-31 renal. The TGI in the assay with A498 renal was 5.2 µM; in the assay on EKVX NSCLC, 2.04 µM; in the assay on HL-60(TB) leukemia it was 11 µM; with MDA-MB-435, 18.2 µM; in the assay with NCI-H460 lung it was 14 µM; in the assay on RXF 393 renal it was 3.32 µM. For the same molecule, the TGI in the assay with SK-OV-3 ovarian was 0.106 µM; with SR leukemia, 24.5 µM; with UACC-62 melanoma it was 9.3 µM; in the assay on UO-31 renal, 7.05 µM.
With `NC1(C(=O)NC2(C(=O)O)CCCC2)CCCC1` (H-[Ac5c]-[Ac5c]-OH), the TGI in the assay with A498 renal, in the assay on EKVX NSCLC, in the assay on HL-60(TB) leukemia, in the assay on MDA-MB-435, with NCI-H460 lung and in the assay on RXF 393 renal was above 100 µM in each case. Also, the TGI in the assay with SK-OV-3 ovarian, with SR leukemia, in the assay on UACC-62 melanoma and in the assay on UO-31 renal was above 100 µM in each case.
